Measurements from patent US8822445B2, “Crystalline form of carbapenem derivative or its hydrates and preparation methods and uses thereof” (priority 2010, dated 2014).
Values after ≈ are worked out from the molar mass of the structure shown. “Also recorded” adds a separate entry of the source.

Columns and labels:
Haemophilus influenzae = assay: Antibacterial activity assay, standard agar double dilution method, clinically isolated strains; type: cell-based; conditions: Haemophilus influenzae clinical isolates
Text: (§1) Test strains: the following clinically isolated strains were provided by public organizations.
(§2) Gram-positive bacteria: methicillin sensitive Staphylococcus aureus (MSSA), and penicillin sensitive Streptococcus pneumoniae;
(§3) Gram-negative bacteria: ESBLs negative Escherichia coli, ESBLs positive Escherichia coli, Haemophilus influenzae, and Moraxelle catarrhalis.
(§4) Test compound: the crystalline form II of compound A
(§5) Experimental method: standard agar double dilution method was adopted.

[1] = tested on: methicillin sensitive Staphylococcus aureus (MSSA); assay: as above; type: cell-based; conditions: MSSA clinical isolates
Text: as §1, §2, §3, §4, §5

[2] = tested on: penicillin sensitive Streptococcus pneumoniae; assay: as above; type: cell-based; conditions: Penicillin sensitive Streptococcus pneumoniae clinical isolates
Text: as §1, §2, §3, §4, §5

Moraxelle catarrhalis = assay: as above; type: cell-based; conditions: Moraxelle catarrhalis clinical isolates
Text: as §1, §2, §3, §4, §5

[3] = tested on: ESBLs positive Escherichia coli; assay: as above; type: cell-based; conditions: ESBLs positive Escherichia coli clinical isolates
Text: as §1, §2, §3, §4, §5

[4] = tested on: ESBLs negative Escherichia coli; assay: as above; type: cell-based; conditions: ESBLs negative Escherichia coli clinical isolates
Text: as §1, §2, §3, §4, §5

[5] = tested on: Gram-positive and Gram-negative bacteria; assay: Antibacterial activity assay, overall conclusion; type: cell-based; conditions: clinically isolated strains
Text: as §1, §2, §3, §4, §5

[6] = Stability assay at a high temperature of 60° C. (water content, related substances, content); type: physicochemical; conditions: for Content %: HPLC; for Water content %: Karl Fischer method
Method: The crystalline form I: prepared by referring to the method of example 1 in CN201010178970.2. The batch number is 20100315-4;
The crystalline form II: prepared by example 2 of the Description. The batch number is 040805.
Test condition: sampled after being placed for 5 and 10 days at a high temperature of 60° C., and the results thus obtained were compared with those obtained at day 0 by measuring water content, related substances and contents thereof. The samples were sealed with plastic bags coated with aluminium foils during the assay.
Water content determination is performed according to the first method (the Karl Fischer method) in Chinese Pharmacopoeia, 2010 edition, Appendix VIII M.
Assay is performed by using the control as the external standard according to the high performance liquid chromatography in Chinese Pharmacopoeia, 2010 edition, Appendix VD.
Apparatus: high performance liquid chromatograph (Agilent 1200 series)
Chromatographic column: Agilent C18; filler: 5 μm octadecyl silane boned silica gel; inner diameter: 4.6 mm; length of the column: 150 mm.
Column temperature: 30° C.
Mobile phase: 0.02 M diammonium phosphate (pH=5.2 adjusted by phosphoric acid): acetonitrile=100:7
Determination of related substances is performed by area normalization method according to the high performance liquid chromatography in Chinese Pharmacopoeia, 2010 edition, Appendix VD.
Chromatographic column: Agilent C18; filler: 5 μm octadecyl silane boned silica gel; inner diameter: 4.6 mm; length of column: 150 mm.
Mobile phase: A: 0.02 M diammonium phosphate (pH=5.2 adjusted by phosphoric acid): acetonitrile=95:5.
B: 0.02 M diammonium phosphate (pH=5.2 adjusted by phosphoric acid): acetonitrile=30:70.
Gradient condition: see Table 1 below.

[7] = 5 days at 60° C. as compared with day 0
[8] = 10 days at 60° C. as compared with day 0

Structure (SMILES) | Decrease in content % [6, 7] [%] | Decrease in water content % [6, 7] [%] | Increase open ring % [6, 7] [%] | Increase total % [6, 7] [%] | Related substance % Total % ([6]; 5 days at 60° C., sealed) [%] | Related substance % open ring % ([6]; 5 days at 60° C., sealed) [%] | Content % ([6]; 5 days at 60° C.) [%] | Water content % ([6]; 5 days at 60° C.) [%] | Decrease in content % [6, 8] [%] | Decrease in water content % [6, 8] [%] | Increase open ring % [6, 8] [%] | Increase total % [6, 8] [%] | Related substance % Total % ([6]; 10 days at 60° C., sealed) [%] | Related substance % open ring % ([6]; 10 days at 60° C., sealed) [%] | Content % ([6]; 10 days at 60° C.) [%] | Water content % ([6]; 10 days at 60° C.) [%] | Related substance % Total % ([6]; day 0) [%] | Related substance % open ring % ([6]; day 0) [%] | Content % ([6]; day 0) [%] | Water content % ([6]; day 0) [%] | also measured
C[C@@H](O)[C@H]1C(=O)N2C(C(=O)O)=C(S[C@@H]3CN[C@H](C(=O)NCc4ccc(S(N)(=O)=O)cc4)C3)[C@H](C)[C@H]12 [crystalline form II, (4R,5S,6S)-6-((R)-1-hydroxyethyl)-4-methyl-7-oxo-3-(((3S,5S)-5-((4-sulfamoylbenzyl)carbamoyl)pyrrolidin-3-yl)thio)-1-azabicyclo[3.2.0]hept-2-ene-2-carboxylic acid] | 1.57 | 0.026 | 0.632 | 0.527 | 1.573 | 0.789 | 98.43 | 8.290 | 2.24 | 0.402 | 0.944 | 0.853 | 1.899 | 1.101 | 97.76 | 7.914 | 1.046 | 0.157 | 100 | 8.316 | MIC90 (Haemophilus influenzae): 0.125 µg/mL (≈ 0.238 µM); MICmode (Haemophilus influenzae): 0.062 mg/L; MICmode [1]: 0.062 mg/L; MIC90 ([1]; Staphylococcus aureus): 0.062 µg/mL (≈ 0.118 µM); MIC90 [2]: 0.031 µg/mL (≈ 0.0591 µM); MICmode [2]: 0.008 mg/L; MIC90 (Moraxelle catarrhalis): 0.008 µg/mL (≈ 0.0152 µM); MICmode (Moraxelle catarrhalis): 0.004 mg/L; MIC90 [3]: 0.25 µg/mL (≈ 0.477 µM); MICmode [3]: 0.016 mg/L; MIC90 [4]: 0.016 µg/mL (≈ 0.0305 µM); MICmode [4]: 0.016 mg/L; antibacterial activity [5]: excellent antibacterial activity against both Gram-positive and Gram-negative bacteria; stability as compared with the crystalline form I ([6]; 5 and 10 days at 60° C.): superior stability; also recorded: better than that of the crystalline form I
C[C@@H](O)[C@H]1C(=O)N2C(C(=O)O)=C(S[C@@H]3CN[C@H](C(=O)NCc4ccc(S(N)(=O)=O)cc4)C3)[C@H](C)[C@H]12 [crystalline form I, (4R,5S,6S)-6-((R)-1-hydroxyethyl)-4-methyl-7-oxo-3-(((3S,5S)-5-((4-sulfamoylbenzyl)carbamoyl)pyrrolidin-3-yl)thio)-1-azabicyclo[3.2.0]hept-2-ene-2-carboxylic acid] | 3.73 | 0.183 | 0.646 | 0.841 | 2.550 | 0.782 | 96.27 | 7.701 | 3.95 | 0.665 | 0.984 | 1.167 | 2.876 | 1.120 | 96.05 | 7.219 | 1.709 | 0.136 | 100 | 7.884 | –
